What was measured:
[1] = test system: primary rat microglia; experiment: Cell toxicity (dead cells, size <150 μm2) in coated fibrin (cFib) assay; details: primary microglia HTS, fibrin stimulation; decreased size (<150 μm^2) as marker of toxicity;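 note: share of dead cells sized under 150 µm2 at 10 µM in fibrin-stimulated microglia HTS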
[2] = test system: fibrin- and LPS-induced microglia activation; experiment: cells; assay type: cell-based, rat; details: quadrant by fibrin and LPS inhibition in HTS of 1907 compounds
[3] = test system: LPS-induced microglia activation; experiment: Image-based assay of LPS-induced microglia activation (HTS and dose response); assay type: cell-based, rat; details: primary microglia HTS, LPS stimulation, increased cell size (>800 μm^2) as marker of activation; for inhibition at 10 µM: Rattus norvegicus, Microglia, 48 h, read-out: LPS % inhibition
[4] = test system: fibrin-induced microglia activation; experiment: Image-based assay of fibrin-induced microglia activation (HTS and dose response); assay type: cell-based, rat; details: primary microglia HTS, fibrin stimulation, increased cell size (>800 μm^2) as marker of activation; for inhibition at 10 µM: Rattus norvegicus, Microglia, read-out: Fibrin % inhibition
[5] = test system: primary rat microglia; experiment: Cell toxicity (dead cells, size <150 μm2) in LPS assay; details: primary microglia HTS, LPS stimulation; decreased size (<150 μm^2) as marker of toxicity

SMILES: CC(C)CCCC(C)N (stereo not shown) [Octodrine]
- Fibrin % cell toxicity [1]: 0%
- Quadrant (FIG. 5b) [2]: Q4
- inhibition at 10 µM [3]: -2%
- inhibition at 10 µM [4]: 2%
- LPS % cell toxicity [5]: 0%

SMILES: C[C@@H](O)[C@@H]1NC(=O)[C@H](CCCCN)NC(=O)[C@@H](Cc2c[nH]c3ccccc23)NC(=O)[C@H](Cc2ccccc2)NC(=O)[C@@H](NC(=O)[C@H](N)Cc2ccccc2)CSSC[C@@H](C(=O)N[C@H](CO)[C@@H](C)O)NC1=O [Octreotide]
- Fibrin % cell toxicity [1]: 1%
- Quadrant (FIG. 5b) [2]: Q4
- LPS % inhibition [3]: −5%
- Fibrin % inhibition [4]: 3%
- LPS % cell toxicity [5]: 1%

SMILES: CC1COc2c(N3CCN(C)CC3)c(F)cc3c(=O)c(C(=O)O)cn1c23 (stereo not shown) [Ofloxacin]
- Fibrin % cell toxicity [1]: 1%
- Quadrant (FIG. 5b) [2]: Q4
- inhibition at 10 µM [3]: 16%
- inhibition at 10 µM [4]: -13%
- LPS % cell toxicity [5]: 0%

SMILES: CO[C@H]1C[C@H](O[C@H]2[C@H](C)[C@@H](O[C@@H]3O[C@H](C)C[C@H](N(C)C)[C@H]3O)[C@@H](C)C[C@@]3(CO3)C(=O)[C@H](C)[C@@H](O)[C@@H](C)[C@@H](C)OC(=O)[C@@H]2C)O[C@@H](C)[C@@H]1O [Oleandomycin Phosphate]
- Fibrin % cell toxicity [1]: 1%
- Quadrant (FIG. 5b) [2]: Q4
- inhibition at 10 µM [3]: 16%
- inhibition at 10 µM [4]: -9%
- LPS % cell toxicity [5]: 0%

SMILES: CCCCCCCC/C=C\CCCCCCCC(=O)O [Oleic Acid]
- Fibrin % cell toxicity [1]: 1%
- Quadrant (FIG. 5b) [2]: Q4
- inhibition at 10 µM [3]: 25%
- inhibition at 10 µM [4]: 23%
- LPS % cell toxicity [5]: 1%

SMILES: CCCc1nc(C(C)(C)O)c(C(=O)OCc2oc(=O)oc2C)n1Cc1ccc(-c2ccccc2-c2nnn[nH]2)cc1 [Olmesartan Medoxomil]
- Fibrin % cell toxicity [1]: 1%
- Quadrant (FIG. 5b) [2]: Q4
- inhibition at 10 µM [3]: 12%
- inhibition at 10 µM [4]: -5%
- LPS % cell toxicity [5]: 0%

SMILES: CCCc1nc(C(C)(C)O)c(C(=O)O)n1Cc1ccc(-c2ccccc2-c2nnn[nH]2)cc1 [Olmesartan]
- Fibrin % cell toxicity [1]: 0%
- Quadrant (FIG. 5b) [2]: Q4
- inhibition at 10 µM [3]: 18%
- inhibition at 10 µM [4]: -13%
- LPS % cell toxicity [5]: 0%

SMILES: CN(C)CC/C=C1/c2ccccc2COc2ccc(CC(=O)O)cc21 [Olopatadine]
- Fibrin % cell toxicity [1]: 1%
- Quadrant (FIG. 5b) [2]: Q4
- inhibition at 10 µM [3]: -9%
- inhibition at 10 µM [4]: -42%
- LPS % cell toxicity [5]: 0%

SMILES: O=C(O)c1cc(/N=N/c2ccc(O)c(C(=O)O)c2)ccc1O [Olsalazine]
- Fibrin % cell toxicity [1]: 1%
- Quadrant (FIG. 5b) [2]: Q4
- inhibition at 10 µM [3]: 22%
- inhibition at 10 µM [4]: -36%
- LPS % cell toxicity [5]: 1%

SMILES: C[C@@H]1CN(c2c(F)c(F)c3c(=O)c(C(=O)O)cn(C4CC4)c3c2F)C[C@H](C)N1 [Orbifloxacin]
- Fibrin % cell toxicity [1]: 0%
- Quadrant (FIG. 5b) [2]: Q4
- inhibition at 10 µM [3]: 15%
- inhibition at 10 µM [4]: -18%
- LPS % cell toxicity [5]: 0%

SMILES: Cc1ncc([N+](=O)[O-])n1CC(O)CCl (stereo not shown) [Ornidazole]
- Fibrin % cell toxicity [1]: 0%
- Quadrant (FIG. 5b) [2]: Q4
- inhibition at 10 µM [3]: 12%
- inhibition at 10 µM [4]: -22%
- LPS % cell toxicity [5]: 0%

SMILES: CCOC(=O)C1=C[C@@H](OC(CC)CC)[C@H](NC(C)=O)[C@@H](N)C1 [Oseltamivir Phosphate]
- Fibrin % cell toxicity [1]: 1%
- Quadrant (FIG. 5b) [2]: Q4
- LPS % inhibition [3]: 13%
- Fibrin % inhibition [4]: −7%
- LPS % cell toxicity [5]: 0%

SMILES: CCOC(=O)C1=C[C@@H](OC(CC)CC)[C@H](NC(C)=O)[C@@H](N)C1 [Oseltamivir]
- Fibrin % cell toxicity [1]: 1%
- Quadrant (FIG. 5b) [2]: Q4
- inhibition at 10 µM [3]: 26%
- Fibrin % inhibition [4]: −28%
- LPS % cell toxicity [5]: 1%

SMILES: Cc1onc(-c2ccccc2)c1C(=O)N[C@@H]1C(=O)N2[C@@H]1SC(C)(C)[C@@H]2C(=O)[O-].[Na+] [Oxacillin Sodium]
- Fibrin % cell toxicity [1]: 0%
- Quadrant (FIG. 5b) [2]: Q4
- LPS % inhibition [3]: 11%
- Fibrin % inhibition [4]: −20%
- LPS % cell toxicity [5]: 0%

Reference: patent US20210330611A1, “THERAPY FOR NEUROLOGICAL DISEASES/DISORDERS” (priority 2020, published 2021)
